Assays:
[1] = target: T1, Androgen receptor (Rattus norvegicus) (UniProt P15207); assay: (§1) Antagonist activity at rat androgen receptor fused with DNA-binding domain of GAL4 expressed in AR-UAS-bla GripTite 293 cells assessed as inhibition of R1881-induced receptor activation preincubated for 30 mins followed by R1881 addition measured after 16 to 24 hrs by betalactamase reporter gene assay; format: cell-based
T1 sequence (whole entry): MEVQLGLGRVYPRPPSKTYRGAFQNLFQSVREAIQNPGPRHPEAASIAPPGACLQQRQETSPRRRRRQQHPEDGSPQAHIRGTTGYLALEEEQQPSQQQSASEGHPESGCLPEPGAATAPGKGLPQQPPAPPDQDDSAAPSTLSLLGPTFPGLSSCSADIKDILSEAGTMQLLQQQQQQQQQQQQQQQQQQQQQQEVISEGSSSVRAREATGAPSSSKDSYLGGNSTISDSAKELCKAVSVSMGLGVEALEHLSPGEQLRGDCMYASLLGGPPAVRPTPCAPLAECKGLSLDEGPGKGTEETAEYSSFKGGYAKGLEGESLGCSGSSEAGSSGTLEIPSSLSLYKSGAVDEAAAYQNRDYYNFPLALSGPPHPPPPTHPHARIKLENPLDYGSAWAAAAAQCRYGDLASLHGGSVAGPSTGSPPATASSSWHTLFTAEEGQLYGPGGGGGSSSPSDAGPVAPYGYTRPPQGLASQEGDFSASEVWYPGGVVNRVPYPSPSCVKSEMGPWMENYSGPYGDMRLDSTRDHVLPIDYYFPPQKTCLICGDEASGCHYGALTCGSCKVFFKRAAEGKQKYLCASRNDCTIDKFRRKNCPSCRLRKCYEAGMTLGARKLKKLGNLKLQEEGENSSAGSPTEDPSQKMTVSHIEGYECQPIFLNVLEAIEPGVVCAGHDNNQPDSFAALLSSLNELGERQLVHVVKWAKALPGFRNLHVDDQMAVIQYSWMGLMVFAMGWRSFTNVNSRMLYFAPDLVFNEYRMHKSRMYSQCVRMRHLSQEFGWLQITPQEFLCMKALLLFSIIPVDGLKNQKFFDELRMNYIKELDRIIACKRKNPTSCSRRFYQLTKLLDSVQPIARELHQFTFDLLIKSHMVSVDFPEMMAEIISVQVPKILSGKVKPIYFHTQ

Androgen receptor = target: T2, Androgen receptor (Rattus norvegicus, UniProt P15207); assay: as §1; format: cell-based
T2 sequence (P15207 whole entry): T1 sequence (whole entry)

DU-145 [2] = assay: Antiproliferative activity against human DU145 cells after 96 hrs by propidium iodide staining based fluorescence 2D monolayer assay; format: functional, cell-based; settings: DU-145, 96 h
[3] = Efflux ratio of apparent permeability from basolateral to apical side over apical to basolateral side in human Caco2 cells at 10 uM incubated for 120 mins by LC-MS/MS analysis; settings: Caco-2
[4] = Apparent permeability from apical to basolateral side in human Caco2 cells at 10 uM incubated for 120 mins by LC-MS/MS analysis; settings: Caco-2
[5] = Metabolic stability in human liver microsomes at 3 uM preincubated with compound followed by NADPH addition measured after 5 to 45 mins by LC-MS/MS analysis; format: ADME, Microsome
VCaP [6] = assay: Antiproliferative activity against human VCaP cells after 96 hrs by propidium iodide staining based fluorescence 2D monolayer assay; format: functional, cell-based
[7] = Apparent permeability from basolateral to apical side in human Caco2 cells at 10 uM incubated for 120 mins by LC-MS/MS analysis; settings: Caco-2
LNCaP [8] = assay: Antiproliferative activity against human LNCAP cells after 96 hrs by propidium iodide staining based fluorescence 2D monolayer assay; format: functional, cell-based
HepG2 [9] = assay: Cytotoxicity against human HepG2 cells assessed as reduction in cell viability after 72 hrs by MTT assay; format: functional, cell-based; settings: HepG2, 72 h; for minimal effective concentration: read-out: MEC
CWR22R [10] = assay: Antiproliferative activity against human 22Rv1 cells after 96 hrs by propidium iodide staining based fluorescence 2D monolayer assay; format: functional, cell-based; settings: 22Rv1, 96 h
[11] = 96 h
Description: Solubility in RPMI1640 culture medium at <30 uM incubated for 4 days by microscopic analysis

[12] = 33000 µM
Description: Solubility in 100% DMSO at 33 mM at -20 degC

HepG2 [13] = assay: Cytotoxicity against human HepG2 cells assessed as reduction in cell viability at 100 uM after 72 hrs by MTT assay relative to control; format: functional
[14] = target: T1, Androgen receptor (Rattus norvegicus); assay: Antagonist activity at rat androgen receptor fused with DNA-binding domain of GAL4 expressed in AR-UAS-bla GripTite 293 cells assessed as inhibition of R1881-induced receptor activation at 1 uM preincubated for 30 mins followed by R1881 addition measured after 16 to 24 hrs by betalactamase reporter gene assay relative to control; format: cell-based
DU-145 [15] = assay: Potency index, ratio of (R)-bicalutamide IC50 to compound IC50 for human DU145 cells; format: functional
CWR22R [16] = assay: Potency index, ratio of (R)-bicalutamide IC50 to compound IC50 for human 22Rv1 cells; format: functional
CWR22R [17] = assay: Potency index, ratio of bicalutamide IC50 to compound IC50 for human 22Rv1 cells; format: functional
VCaP [18] = assay: Potency index, ratio of (R)-bicalutamide IC50 to compound IC50 for human VCaP cells; format: functional
LNCaP [19] = assay: Potency index, ratio of (R)-bicalutamide IC50 to compound IC50 for human LNCAP cells; format: functional
LNCaP [20] = assay: Potency index, ratio of bicalutamide IC50 to compound IC50 for human LNCAP cells; format: functional
DU-145 [21] = assay: Potency index, ratio of bicalutamide IC50 to compound IC50 for human DU145 cells; format: functional
VCaP [22] = assay: Potency index, ratio of bicalutamide IC50 to compound IC50 for human VCaP cells; format: functional
VCaP [23] = assay: Antiproliferative activity against human VCaP cells assessed as relative inhibition after 96 hrs by propidium iodide staining based fluorescence 2D monolayer assay; format: functional, cell-based
LNCaP [24] = assay: Potency index, ratio of enzalutamide IC50 to compound IC50 for human LNCAP cells; format: functional
CWR22R [25] = assay: Antiproliferative activity against human 22Rv1 cells assessed as relative inhibition after 96 hrs by propidium iodide staining based fluorescence 2D monolayer assay; format: functional, cell-based; settings: 22Rv1, 96 h
DU-145 [26] = assay: Antiproliferative activity against human DU145 cells assessed as relative inhibition after 96 hrs by propidium iodide staining based fluorescence 2D monolayer assay; format: functional, cell-based; settings: DU-145, 96 h
LNCaP [27] = assay: Antiproliferative activity against human LNCAP cells assessed as relative inhibition after 96 hrs by propidium iodide staining based fluorescence 2D monolayer assay; format: functional, cell-based
[28] = Half life in human liver microsomes at 3 uM preincubated with compound followed by NADPH addition by LC-MS/MS analysis; settings: microsomes
in vitro = settings: human, microsomes

## CC(O)(CS(=O)(=O)c1ccccc1C(F)(F)F)C(=O)Nc1ccc([N+](=O)[O-])c(C(F)(F)F)c1 (stereo not drawn)
[1]
  inhibition: Dose-dependent effect
Androgen receptor
  IC50: 0.811 µM
DU-145 [2]
  IC50: 37.5 µM
[3]
  efflux ratio at 2 h, 10 µM: 1.29
[4]
  Papp A→B at 2 h, 10 µM: 13.3 ×10⁻⁶ cm/s
[5]
  Stability: Stable
VCaP [6]
  IC50: 27.6 µM
[7]
  Papp B→A at 2 h, 10 µM: 17.2 ×10⁻⁶ cm/s
LNCaP [8]
  IC50: 25.7 µM
HepG2 [9]
  AC50: 32.6 µM
  minimal effective concentration: 22.7 µM
CWR22R [10]
  IC50: 18.6 µM
[11]
  solubility: Soluble
[12]
  solubility: Soluble

## CC(O)(COc1ccc(C(F)(F)F)cc1)C(=O)Nc1ccc(C#N)c(C(F)(F)F)c1 (stereo not drawn)
DU-145 [2]
  IC50: 16.3 µM
[3]
  efflux ratio at 2 h, 10 µM: 0.943
[4]
  Papp A→B at 2 h, 10 µM: 5.09 ×10⁻⁶ cm/s
[5]
  Stability: Stable
VCaP [6]
  IC50: 9.65 µM
[7]
  Papp B→A at 2 h, 10 µM: 4.8 ×10⁻⁶ cm/s
LNCaP [8]
  IC50: 6.45 µM
HepG2 [9]
  AC50: 23.9 µM
  minimal effective concentration: 11.3 µM
CWR22R [10]
  IC50: 6.91 µM
[11]
  solubility: Soluble
[12]
  solubility: Soluble

## C[C@](O)(COc1ccc(C#N)cc1)C(=O)Nc1ccc(C#N)c(C(F)(F)F)c1 [ENOBOSARM]
Androgen receptor
  IC50: 0.0364 µM
DU-145 [2]
  IC50: 44.6 µM
[3]
  efflux ratio at 2 h, 10 µM: 0.848
[4]
  Papp A→B at 2 h, 10 µM: 31.5 ×10⁻⁶ cm/s
[5]
  Stability: Stable
VCaP [6]
  IC50: 24.5 µM
[7]
  Papp B→A at 2 h, 10 µM: 26.7 ×10⁻⁶ cm/s
HepG2 [9]
  AC50: 32.8 µM
  minimal effective concentration: 21.8 µM
CWR22R [10]
  IC50: 24.8 µM
HepG2 [13]
  cell viability reduction: 79%

## CC(O)(COc1ccc(C#N)c(F)c1)C(=O)Nc1ccc([N+](=O)[O-])c(C(F)(F)F)c1 (stereo not drawn)
[14]
  inhibition: 65%
[1]
  inhibition: Dose-dependent effect
Androgen receptor
  IC50: 0.0492 µM
DU-145 [2]
  IC50: 16.4 µM
VCaP [6]
  IC50: 12.4 µM
LNCaP [8]
  IC50: 7.71 µM
CWR22R [10]
  IC50: 11.8 µM
[11]
  solubility: Soluble
[12]
  solubility: Soluble

## C[C@](O)(CS(=O)(=O)c1ccc(C(F)(F)F)cc1)C(=O)Nc1ccc(C#N)c(C(F)(F)F)c1
DU-145 [15]
  Ratio IC50: 2
[1]
  inhibition: Dose-dependent effect
Androgen receptor
  IC50: 0.775 µM
DU-145 [2]
  IC50: 26.8 µM
CWR22R [16]
  Ratio IC50: 2
CWR22R [17]
  Ratio IC50: <=2
VCaP [18]
  Ratio IC50: 2
VCaP [6]
  IC50: 31.4 µM
LNCaP [8]
  IC50: 17.5 µM
LNCaP [19]
  Ratio IC50: 2
CWR22R [10]
  IC50: 20.2 µM
[11]
  solubility: Soluble
LNCaP [20]
  Ratio IC50: <=2
DU-145 [21]
  Ratio IC50: <=2
VCaP [22]
  Ratio IC50: <=2
[12]
  solubility: Soluble

## C[C@](O)(CS(=O)(=O)c1ccc(OC(F)(F)F)cc1)C(=O)Nc1ccc(C#N)c(C(F)(F)F)c1
[14]
  inhibition: 53 to 69%
[1]
  inhibition: Dose-dependent effect
Androgen receptor
  IC50: 0.777 µM
DU-145 [2]
  IC50: 31.6 µM
VCaP [6]
  IC50: 31.2 µM
LNCaP [8]
  IC50: 18.9 µM
CWR22R [10]
  IC50: 18.8 µM
[11]
  solubility: Soluble
[12]
  solubility: Soluble

## CC1(C)C(=O)N(c2ccc(C(F)(F)F)cc2)C(=O)N1c1ccc([N+](=O)[O-])c(C(F)(F)F)c1
[1]
  inhibition: Dose-dependent effect
Androgen receptor
  IC50: 0.0803 µM
DU-145 [2]
  IC50: ≥ 100 µM
  IC70: > 100 µM
VCaP [23]
  IC50: 0.053 µM
  IC70: 7.76 µM
VCaP [6]
  IC50: 73.1 µM
  IC70: > 100 µM
LNCaP [8]
  IC50: 2.12 µM
  IC70: 9.64 µM
LNCaP [24]
  Ratio IC50: <=5
CWR22R [10]
  IC50: ≥ 100 µM
  IC70: > 100 µM
CWR22R [25]
  IC50: 41.6 µM
  IC70: > 100 µM
[11]
  solubility: Soluble
DU-145 [26]
  IC50: > 100 µM
  IC70: > 100 µM
LNCaP [27]
  IC50: 1.64 µM
  IC70: 7.89 µM
[12]
  solubility: Soluble

## CC(O)(CSc1ccccc1C(F)(F)F)C(=O)Nc1ccc([N+](=O)[O-])c(C(F)(F)F)c1 (stereo not drawn)
[1]
  inhibition: Dose-dependent effect
Androgen receptor
  IC50: 0.28 µM
DU-145 [2]
  IC50: 7.57 µM
[3]
  efflux ratio at 2 h, 10 µM: 0.843
[4]
  Papp A→B at 2 h, 10 µM: 3.44 ×10⁻⁶ cm/s
VCaP [6]
  IC50: 4.45 µM
[28]
  half-life at 3 µM: 3.39 min
In vitro
  microsomal CLint at 3 µM: 409 µL/min/mg
[7]
  Papp B→A at 2 h, 10 µM: 2.9 ×10⁻⁶ cm/s
LNCaP [8]
  IC50: 4.78 µM
HepG2 [9]
  AC50: 2.73 µM
  minimal effective concentration: 1.71 µM
CWR22R [10]
  IC50: 4.6 µM
[11]
  solubility: Soluble
HepG2 [13]
  cell viability reduction: 98%
[12]
  solubility: Soluble

— ChEMBL document CHEMBL4477199, “Design and synthesis of novel bicalutamide and enzalutamide derivatives as antiproliferative agents for the treatment of prostate cancer” (Eur J Med Chem, 2016)
